Experimental data as given in PubChem BioAssay (NCI).
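Results reflect a 48-hour exposure of cells in 96-well plates to compound at five concentrations. Abbreviation: GI50, concentration required for 50% inhibition of growth. At the TGI there is no net growth.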

How the values were obtained:
Assay in all cases: NCI tumour cell line growth inhibition, 48 h
[1] = test system: IGROV1 ovarian
[2] = test system: KM12 colon
[3] = test system: SF-539 CNS
[4] = test system: OVCAR-5 ovarian
[5] = test system: RPMI-8226 leukemia
[6] = test system: HL-60(TB) leukemia
[7] = test system: LXFL 529 NSCLC
[8] = test system: K-562 leukemia
[9] = test system: DMS 114 small cell lung
[10] = test system: T-47D breast

N#CC(C(=O)CCC(=O)C(C#N)c1ccccc1)c1ccccc1 (stereo not drawn)
TGI [1]: > 100 µM
TGI [2]: > 100 µM
TGI [3]: > 100 µM
TGI [4]: > 100 µM
TGI [5]: > 100 µM
TGI [6]: > 100 µM
TGI [7]: > 100 µM
TGI [8]: > 100 µM
TGI [9]: > 100 µM

O=C(CC1(O)C(=O)Nc2c(Cl)ccc(Cl)c21)c1ccc2ccccc2c1 (stereo not drawn)
TGI [1]: 41.4 µM
TGI [2]: 17.8 µM
TGI [3]: 35.5 µM
TGI [4]: 39.5 µM
TGI [5]: 31 µM
TGI [6]: 4.04 µM
TGI [7]: 21.8 µM
TGI [9]: 19.2 µM

Clc1cc(Cc2cc(Cl)c(Cl)c3c2OCOC3)c2c(c1Cl)COCO2
TGI [1]: > 100 µM
TGI [2]: > 100 µM
TGI [3]: 52.3 µM
TGI [4]: > 100 µM
TGI [5]: > 100 µM
TGI [6]: > 100 µM
TGI [7]: > 100 µM
TGI [8]: > 100 µM
TGI [9]: > 100 µM

CN(C(=O)C12C3C4C1C1C4(C(=O)C45C6C7C4C4C5C6C74C)C3C12C)C(C)(C)C (stereo not drawn)
TGI [1]: > 100 µM
TGI [2]: > 100 µM
TGI [3]: > 100 µM
TGI [4]: > 100 µM
TGI [6]: 43.2 µM
TGI [7]: > 100 µM
TGI [8]: > 100 µM
TGI [9]: > 100 µM

CC1(c2cccc3ccccc23)OC(=O)c2ccccc21 (stereo not drawn)
TGI [1]: 55.3 µM
TGI [2]: > 100 µM
TGI [3]: 30.2 µM
TGI [4]: > 100 µM
TGI [5]: 77.6 µM
TGI [6]: 43.4 µM
TGI [7]: > 100 µM
TGI [8]: 65.8 µM
TGI [9]: 38 µM

CCOC(=O)N1CCc2cc(OC)c(OC)c3c2c1cc1cc(OC)c(OC)cc13
TGI [1]: > 100 µM
TGI [2]: 67.7 µM
TGI [3]: 9.17 µM
TGI [4]: > 100 µM
TGI [5]: 60.9 µM
TGI [6]: > 100 µM
TGI [7]: > 100 µM
TGI [8]: > 75.9 µM
TGI [9]: 7.1 µM
TGI [10]: > 60.2 µM

O=C(CO)CC(=O)C(=O)Nc1ccccc1
TGI [1]: > 100 µM
TGI [2]: > 100 µM
TGI [3]: > 100 µM
TGI [4]: > 100 µM
TGI [6]: > 100 µM
TGI [7]: > 100 µM
TGI [8]: > 100 µM
TGI [9]: > 100 µM

CC(=O)[CH-]C(=O)c1ccccc1.CC(=O)[CH-]C(=O)c1ccccc1.[Eu+3].[OH-].[OH3+]
GI50 [1]: > 100000 nM
TGI [1]: > 100 µM
GI50 [3]: > 100 µM
TGI [3]: > 100 µM
GI50 [5]: > 100000 nM
TGI [5]: > 100 µM
GI50 [6]: > 100000 nM
TGI [6]: > 100 µM
GI50 [7]: > 100000 nM
TGI [7]: > 100 µM
GI50 [8]: > 100000 nM
TGI [8]: > 100 µM

O=C1NC(=O)C2C(=O)NC(=O)C1C2(c1ccccc1)c1cc[nH]c1 (stereo not drawn)
TGI [1]: > 100 µM
TGI [2]: > 100 µM
TGI [3]: > 100 µM
TGI [4]: > 100 µM
TGI [5]: > 100 µM
TGI [6]: > 100 µM
TGI [7]: > 100 µM
TGI [8]: > 100 µM
TGI [9]: > 100 µM

CCC1(c2c(F)c(F)c(N)c(F)c2F)CCC(=O)NC1=O (stereo not drawn)
TGI [1]: > 100 µM
TGI [2]: > 100 µM
TGI [3]: > 100 µM
TGI [4]: > 100 µM
TGI [5]: > 100 µM
TGI [6]: > 100 µM
TGI [7]: > 100 µM
TGI [8]: > 100 µM
TGI [9]: > 100 µM

CC(=O)OC[C@]1(O)CC[C@@]23CC1C[C@@H]2CCC1C(C)(C)CCC[C@@]13C (stereo partly drawn)
TGI [1]: 34.5 µM
TGI [2]: 26.1 µM
TGI [3]: 30.4 µM
TGI [4]: 23.5 µM
TGI [5]: 28.1 µM
TGI [6]: 20.4 µM
TGI [7]: 23.2 µM
TGI [8]: 20.3 µM
TGI [9]: 25.3 µM

CCOc1ccccc1NC(=O)CC1SC(=Nc2ccc([N+](=O)[O-])cc2)NC1=O (stereo not drawn)
TGI [1]: 61.4 µM
TGI [2]: 37 µM
TGI [4]: 78.7 µM
TGI [5]: 28.9 µM
TGI [6]: > 100 µM
TGI [7]: 39.9 µM
TGI [9]: 32 µM

Cc1cc2nc(CCC(=O)O)c(=O)[nH]c2cc1C
TGI [1]: > 100 µM
TGI [2]: > 100 µM
TGI [3]: > 100 µM
TGI [4]: > 100 µM
TGI [5]: > 100 µM
TGI [6]: > 100 µM
TGI [7]: > 100 µM
TGI [8]: > 100 µM
TGI [9]: > 100 µM

N[C@@H]1CCCC[C@H]1N.O=C([O-])C(=O)[O-].[Pt+4]
GI50 [1]: 1850 nM
TGI [1]: 35.9 µM
GI50 [2]: 10.9 µM
TGI [2]: > 100 µM
GI50 [3]: 10 µM
TGI [3]: > 83.8 µM
GI50 [4]: 671 nM
TGI [4]: 21.2 µM
GI50 [5]: 52.8 nM
TGI [5]: > 91.2 µM
GI50 [6]: 2830 nM
TGI [6]: > 100 µM
GI50 [7]: 2360 nM
TGI [7]: > 100 µM
GI50 [8]: 854 nM
TGI [8]: > 95.3 µM
GI50 [10]: 2210 nM
TGI [10]: > 100 µM

Oc1ccccc1C=NCc1ccco1
TGI [1]: > 100 µM
TGI [2]: > 100 µM
TGI [3]: > 100 µM
TGI [4]: > 100 µM
TGI [5]: > 100 µM
TGI [6]: > 100 µM
TGI [7]: > 100 µM
TGI [8]: > 100 µM
TGI [9]: > 100 µM

N#Cc1c(NN)nc(NN)c(C#N)c1-c1ccccc1
TGI [1]: > 100 µM
TGI [2]: > 100 µM
TGI [3]: > 100 µM
TGI [4]: > 100 µM
TGI [5]: > 100 µM
TGI [6]: > 100 µM
TGI [7]: > 100 µM
TGI [8]: > 100 µM
TGI [9]: > 100 µM

N/C(=C\c1ccc(OCc2ccccc2)c(OCc2ccccc2)c1[N+](=O)[O-])C(=O)O
TGI [1]: > 100 µM
TGI [2]: > 100 µM
TGI [3]: > 100 µM
TGI [4]: > 100 µM
TGI [5]: > 100 µM
TGI [6]: > 100 µM
TGI [7]: > 100 µM
TGI [8]: > 100 µM

Cn1c(=O)nc2n(-c3cccc(Br)c3)c3ccccc3nc-2c1=O
TGI [1]: 23.7 µM
TGI [2]: 21 µM
TGI [3]: 18.2 µM
TGI [4]: 26.1 µM
TGI [5]: 37.7 µM
TGI [6]: 9.76 µM
TGI [7]: 19.5 µM
TGI [8]: 35.9 µM
TGI [9]: 4.45 µM

CCCCCCCCCCCCCC(=O)CC(=O)c1c(O)cccc1O
TGI [1]: > 100 µM
TGI [2]: > 100 µM
TGI [3]: > 100 µM
TGI [4]: > 100 µM
TGI [5]: 72.4 µM
TGI [6]: 41.7 µM
TGI [7]: > 100 µM
TGI [8]: 48.2 µM
TGI [9]: 47.1 µM
